Data as given in ChEMBL document CHEMBL1201862, “PubChem BioAssay data set” (2004).
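Step 1: Grow cells in 96-well plates. Step 2: Expose to compound for 48 hours at 5 concentrations. Step 3: Interpolate endpoints linearly; if unreached, use highest concentration. GI50: concentration for 50% inhibition of growth.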 The source made the active and inactive calls. No stated cut-off is given here; in the data, active = GI50 up to about 1.1 µM and inactive = higher.

Tests used:
Test in all cases: NCI tumour cell line growth inhibition, 48 h
DLD-1 = system: DLD-1
OVCAR-5 = system: OVCAR-5
NCI/ADR-RES = system: NCI/ADR-RES
MCF7 = system: MCF7
KM-20L2 = system: KM-20L2
NCI-H522 = system: NCI-H522
MDA-MB-435 = system: MDA-MB-435
K562 = system: K562
DU-145 = system: DU-145
T47D = system: T47D
HOP-18 = system: HOP-18
TK-10 = system: TK-10
EKVX = system: EKVX
MOLT-4 = system: MOLT-4
HCT-116 = system: HCT-116
RXF 631 = system: RXF 631
HL-60 = system: HL-60
UO-31 = system: UO-31
OVCAR-4 = system: OVCAR-4
CAKI-1 = system: CAKI-1
UACC-257 = system: UACC-257
SNB-75 = system: SNB-75
U-251 = system: U-251
SNB-78 = system: SNB-78
HCT-15 = system: HCT-15
SK-MEL-5 = system: SK-MEL-5
HOP-62 = system: HOP-62
SF-539 = system: SF-539
SF-268 = system: SF-268
UACC-62 = system: UACC-62
SK-MEL-2 = system: SK-MEL-2
LXFL 529 = system: LXFL 529
RXF 393 = system: RXF 393
786-0 = system: 786-0
OVCAR-3 = system: OVCAR-3
LOX IMVI = system: LOX IMVI
SN12C = system: SN12C
Malme-3M = system: Malme-3M
KM12 = system: KM12
OVCAR-8 = system: OVCAR-8
SK-OV-3 = system: SK-OV-3
SF-295 = system: SF-295
COLO 205 = system: COLO 205
ACHN = system: ACHN
M14 = system: M14
DMS-273 = system: DMS-273
HOP-92 = system: HOP-92
HT-29 = system: HT-29
NCI-H460 = system: NCI-H460
SW-620 = system: SW-620
XF498 = system: XF498
A549 = system: A549
NCI-H226 = system: NCI-H226
SNB-19 = system: SNB-19
M19-MEL = system: M19-MEL
IGROV-1 = system: IGROV-1
CCRF-CEM = system: CCRF-CEM
RPMI-8226 = system: RPMI-8226
NCI-H23 = system: NCI-H23
SK-MEL-28 = system: SK-MEL-28
Hs-578T = system: Hs-578T
BT-549 = system: BT-549
MDA-MB-231 = system: MDA-MB-231
MDA-N = system: MDA-N
A498 = system: A498
HCC 2998 = system: HCC 2998
PC-3 = system: PC-3
SR = system: SR
DMS-114 = system: DMS-114

Measured: GI50

COc1cc2c(c(OC)c1OC)-c1ccc(OC)c(=O)cc1[C@@H](NC(C)=O)CC2 [COLCHICINE]
active: DLD-1 0.0625 µM | NCI/ADR-RES 0.845 µM | MCF7 0.0625 µM | KM-20L2 < 0.0625 µM | NCI-H522 0.0119 µM | MDA-MB-435 < 0.01 µM | K562 0.0135 µM | DU-145 0.659 µM | MOLT-4 0.0237 µM | HCT-116 0.0168 µM | RXF 631 0.0363 µM | HL-60 < 0.0625 µM | UO-31 0.56 µM
inactive: OVCAR-5 7.18 µM | T47D > 78.3 µM | HOP-18 > 68.9 µM | TK-10 23.7 µM | EKVX 49 µM | OVCAR-4 12.9 µM

CN(C(=O)c1ccco1)C(=S)N1CCN(c2ccccn2)CC1
> 100 µM: HCT-15
inactive: CAKI-1 > 100 µM | UACC-257 > 100 µM | SNB-75 > 100 µM | DLD-1 > 100 µM | U-251 > 100 µM | SNB-78 > 100 µM | OVCAR-5 > 100 µM | SK-MEL-5 > 100 µM | HOP-62 > 100 µM | SF-539 > 100 µM | SF-268 > 100 µM | UACC-62 > 100 µM | KM-20L2 > 100 µM | SK-MEL-2 > 100 µM | NCI-H522 > 100 µM | LXFL 529 > 100 µM | RXF 393 > 100 µM | 786-0 > 100 µM | OVCAR-3 > 100 µM | LOX IMVI > 100 µM | K562 > 100 µM | SN12C > 100 µM | Malme-3M > 100 µM | KM12 > 100 µM | OVCAR-8 > 100 µM | HOP-18 > 100 µM | SK-OV-3 > 100 µM | SF-295 > 100 µM | COLO 205 > 100 µM | ACHN > 100 µM | M14 > 100 µM | DMS-273 > 100 µM | HOP-92 > 100 µM | TK-10 > 100 µM | HT-29 > 100 µM | NCI-H460 > 100 µM | SW-620 > 100 µM | XF498 > 100 µM | A549 > 100 µM | MOLT-4 > 100 µM | NCI-H226 > 100 µM | SNB-19 > 100 µM | HCT-116 > 100 µM | M19-MEL > 100 µM | HL-60 > 100 µM | IGROV-1 > 100 µM | CCRF-CEM > 100 µM | RPMI-8226 > 100 µM | UO-31 > 100 µM | OVCAR-4 > 100 µM | NCI-H23 > 100 µM | SK-MEL-28 > 100 µM

O=C(O)Cc1cccc2c(=O)cc(-c3ccccc3)oc12 [MITOFLAXONE]
220 µM: HCT-15
inactive: CAKI-1 142 µM | UACC-257 > 250 µM | SNB-75 212 µM | DLD-1 > 250 µM | U-251 > 250 µM | SNB-78 > 250 µM | OVCAR-5 242 µM | SK-MEL-5 230 µM | HOP-62 243 µM | SF-539 > 250 µM | SF-268 > 250 µM | NCI/ADR-RES 222 µM | MCF7 236 µM | Hs-578T 149 µM | UACC-62 > 250 µM | KM-20L2 > 250 µM | SK-MEL-2 153 µM | NCI-H522 228 µM | RXF 393 244 µM | 786-0 71.4 µM | OVCAR-3 235 µM | MDA-MB-435 > 250 µM | LOX IMVI 243 µM | K562 239 µM | SN12C 238 µM | DU-145 > 940 µM | Malme-3M > 250 µM | KM12 240 µM | OVCAR-8 > 175 µM | T47D > 250 µM | HOP-18 156 µM | BT-549 204 µM | SK-OV-3 242 µM | SF-295 242 µM | COLO 205 > 250 µM | ACHN > 250 µM | MDA-MB-231 > 250 µM | M14 > 250 µM | DMS-273 > 250 µM | TK-10 > 250 µM | MDA-N 385 µM | HT-29 > 250 µM | NCI-H460 > 250 µM | SW-620 > 250 µM | EKVX 242 µM | XF498 33.7 µM | A549 245 µM | MOLT-4 > 209 µM | NCI-H226 237 µM | A498 226 µM | SNB-19 > 250 µM | HCT-116 206 µM | HCC 2998 > 250 µM | M19-MEL > 250 µM | HL-60 > 250 µM | IGROV-1 > 250 µM | CCRF-CEM 213 µM | PC-3 > 250 µM | RPMI-8226 244 µM | UO-31 147 µM | OVCAR-4 185 µM | NCI-H23 > 250 µM | SR 321 µM | SK-MEL-28 > 250 µM | DMS-114 227 µM

O=C1NC2(CCCCC2)C(=O)N1CCN(CCCl)CCCl [SPIROMUSTINE]
inactive: CAKI-1 41.8 µM | UACC-257 218 µM | SNB-75 173 µM | DLD-1 164 µM | U-251 182 µM | SNB-78 148 µM | OVCAR-5 > 233 µM | SK-MEL-5 > 241 µM | HOP-62 107 µM | SF-539 114 µM | NCI/ADR-RES 136 µM | MCF7 113 µM | Hs-578T > 25 µM | UACC-62 77.6 µM | KM-20L2 > 194 µM | SK-MEL-2 > 141 µM | NCI-H522 65.5 µM | 786-0 > 25 µM | MDA-MB-435 > 25 µM | LOX IMVI 104 µM | K562 214 µM | SN12C 112 µM | DU-145 > 25 µM | Malme-3M 165 µM | KM12 199 µM | OVCAR-8 129 µM | T47D 23.9 µM | HOP-18 236 µM | BT-549 > 25 µM | SK-OV-3 171 µM | COLO 205 > 230 µM | ACHN 23.1 µM | MDA-MB-231 > 25 µM | M14 > 25 µM | DMS-273 71.6 µM | TK-10 > 25 µM | MDA-N > 25 µM | HT-29 > 250 µM | NCI-H460 61.5 µM | SW-620 102 µM | EKVX 204 µM | XF498 28.8 µM | A549 135 µM | MOLT-4 34.2 µM | NCI-H226 > 250 µM | A498 > 250 µM | SNB-19 187 µM | HCT-116 190 µM | HCC 2998 > 230 µM | M19-MEL 228 µM | HL-60 41.9 µM | IGROV-1 > 250 µM | CCRF-CEM 45.8 µM | PC-3 > 25 µM | RPMI-8226 134 µM | UO-31 218 µM | OVCAR-4 > 239 µM | NCI-H23 106 µM | SR 19.4 µM | SK-MEL-28 97.5 µM | DMS-114 88.7 µM

COc1cccc(/C(C=O)=C(\Cl)c2ccc(OC)c(OC)c2)c1
12.9 µM: HCT-15
inactive: CAKI-1 29.2 µM | UACC-257 14.4 µM | SNB-75 5.04 µM | DLD-1 12.9 µM | U-251 13.9 µM | SNB-78 13 µM | OVCAR-5 19 µM | SK-MEL-5 12.7 µM | HOP-62 12.3 µM | SF-539 16.6 µM | SF-268 11.7 µM | UACC-62 4.63 µM | KM-20L2 19.7 µM | SK-MEL-2 19.2 µM | NCI-H522 10.3 µM | LXFL 529 11.6 µM | RXF 393 12.3 µM | 786-0 16.1 µM | OVCAR-3 16.6 µM | LOX IMVI 15 µM | K562 13.6 µM | SN12C 14.7 µM | Malme-3M 15.6 µM | KM12 15.7 µM | OVCAR-8 13.8 µM | HOP-18 13.6 µM | SK-OV-3 26.1 µM | SF-295 15.2 µM | COLO 205 14.5 µM | ACHN 13.6 µM | M14 17.6 µM | DMS-273 14 µM | HOP-92 20.6 µM | TK-10 28.1 µM | HT-29 14.4 µM | NCI-H460 13.3 µM | SW-620 15.9 µM | EKVX 17.9 µM | XF498 17.3 µM | A549 19.5 µM | MOLT-4 13.2 µM | NCI-H226 14 µM | SNB-19 3.94 µM | HCT-116 10.6 µM | HCC 2998 16.1 µM | M19-MEL 11.3 µM | HL-60 3.97 µM | IGROV-1 21.1 µM | CCRF-CEM 7.74 µM | RPMI-8226 11.5 µM | UO-31 14.5 µM | OVCAR-4 16 µM | NCI-H23 12.2 µM | SR 13.5 µM | SK-MEL-28 15.1 µM | DMS-114 15.1 µM
